Tested on: CT26.WT
Experiment: Subcutaneous syngeneic CT26.WT colon carcinoma mouse model, ARI-001 with anti-mCTLA-4 antibody (Example 153)
Assay type: in vivo
Protocol: In this example, the in vivo anti-tumor efficacy of ARI-001, an antibody against mouse CTLA-4 (mCTLA-4), and a combination of the two agents was evaluated using the subcutaneous syngeneic CT26.WT (aka CT-26) colon carcinoma mouse model.
CT26.WT cells were obtained from the ATCC and grown in RPMI 1640 medium supplemented with 10% FBS at 37° C. in a 5% CO2 atmosphere. Female Envigo BALB/c mice (BALB/cANNHsd) of 5-6 weeks old were implanted subcutaneously in the right axilla (high) on Day 0 with 5.0×10^5 cells/mouse in 200 μl using a 27-gauge needle and syringe.
ARI-001 powder was dissolved in 100% DMSO to obtain a 106.67 mg/ml dosing formulation with a pH of 7.6. The dosing solution was stored at room temperature and protected from light. The anti-mCTLA-4 9D9 was obtained from BioXcell.
All mice were sorted into study groups based on caliper estimation of tumor burden. Each study group had ten mice. The mice were distributed to ensure that the mean tumor burden for all groups was within 10% of the overall mean tumor burden for the study population. Treatment began on Day 7 at an overall mean tumor burden of 89 mm^3 (range of group means, 87-91 mm^3). All mice were dosed according to individual body weight on the day of treatment (0.2 mL/20 g for anti-mCTLA-4 and vehicle (PBS), 30 μL/20 g for ARI-001 and vehicle (DMSO)). All agents were given to the mice intraperitoneally.
Tumor measurements were recorded three times weekly. Tumor burden (mm^3) was estimated from caliper measurements by the formula for the volume of a prolate ellipsoid assuming unit density as:
Tumor burden(mm^3)=(L×W^2)/2,
The primary endpoints used to evaluate efficacy at the group level were: tumor growth delay, increased time to progression (% ITP), median ΔT/ΔC, complete and partial tumor response, and the number of tumor-free survivors at the end of the study. Tumor growth delay for this experiment was evaluated at 750 mm^3. Time to progression study for this experiment was evaluated at 2,000 mm^3. This is the IACUC required tumor burden limit, and the time to euthanasia can be thought of as a surrogate for lifespan.
In this experiment, median ΔT/ΔC was evaluated when the median control tumor burden reached 1,000 mm^3 (Day 17). A mouse was considered a putative responder if it met at least one of the following criteria: complete regression of the tumor or being at least two standard deviations larger than the median time to progression of the control group. The following are the definitions of the efficacy parameters mentioned above: ΔC and ΔT are individual mouse endpoints that are calculated for each mouse as follows:
Median ΔT/ΔC is a group endpoint. It is calculated for each day of treatment as:
The results are presented as %. When the median ΔT/ΔC is negative (the median treated tumor burden is regressing), the median ΔT/ΔC is not reported and the Median % Regression is reported instead.
Time to Evaluation Size (TES)—TES is an individual mouse endpoint and it is expressed in days from tumor implant. It is the time it takes the tumor burden to reach a specified value, and it can be calculated from any method of evaluating tumor burden (caliper measurements, BLI, anatomical imaging, etc.). It is calculated by log-linear interpolation between the two closest data points that bracket the chosen tumor burden.
Time to Progression (TP)—Time to progression is a surrogate for lifespan, time on study, or lifespan. It is used for studies that involve IACUC mandated euthanasia of animals for excessive tumor burdens (even if the animals otherwise appear normal). The mandated tumor burden limit is tumor model dependent. TP data is analyzed by Kaplan Meier methods just as traditional life span data. The Time to Progression for an individual animal is the number of days between initiation of treatment and the death or required euthanasia of that animal. […]

COC(=O)c1csc(C(=O)c2c[nH]c3ccccc23)n1 [ARI-001]
Incidence of putative responders (CT26.WT, ARI-001 160 mg/kg/inj., 9D9 10 mg/kg/inj.): 70%
Tumor Growth Delay (CT26.WT, ARI-001 160 mg/kg/inj., 9D9 10 mg/kg/inj., intraperitoneally): 2.9 days
Day 17 Median ΔT/ΔC (Day 17, ARI-001 160 mg/kg/inj., 9D9 10 mg/kg/inj., intraperitoneally): 44%
CR (complete response): 0%
MBW Change (mean body weight change during treatment, ARI-001 160 mg/kg/inj., 9D9 10 mg/kg/inj., intraperitoneally): −8.3%
Increase in MTP (median time to progression, 2,000 mm^3, relative to Group 1): 40%
